Assays:
[1] = Nonparametric population PK model of daptomycin (NPAG, Pmetrics) in the learning dataset
Excerpt: (§1) We used two data sets: a learning set used to derive the nonparametric population model of daptomycin and a validation dataset. The learning dataset was described in a previous publication from our group, which focused on the influence of P-gp gene polymorphism on daptomycin PK (n = 81 patients). […] All patients were enrolled in a cohort study after information. This cohort study was subject to a declaration to the local Commission for Data Protection and Liberties (number 17-057) and is registered on ClinicalTrial.gov (number NCT03134521). In addition, patients’ written informed consent was obtained for P-gp genotyping, in accordance with French regulation.
(§2) Blood samples for daptomycin TDM were obtained during hospitalization or follow-up visit at the BJI center. In most patients, TDM was performed on several occasions to control drug exposure throughout therapy. At each occasion, a typical PK profile was obtained, including three plasma samples collected approximately pre-dose (trough or Cmin), 30 min and 5 to 6 h after daptomycin administration. On some occasions, only one or two samples could be obtained. Sampling times were recorded precisely in each patient. Daptomycin plasma concentrations were measured using an HPLC assay with a photodiode array detector. The method was adapted from a previous publication.
(§3) In our previous work, the final population PK model of daptomycin was built by using a parametric approach (SAEM algorithm in the Monolix software). […] We reanalyzed the original dataset in order to implement a nonparametric model into the BestDose software. The NPAG algorithm embedded into the Pmetrics package for R was used to develop the nonparametric model. […] The error model was based on the assay error pattern. The predictive performance of the final model was assessed by computing the bias and precision of model-based individual predictions (see below). The model was then imported into the Windows version of the BestDose software.

[2] = in vivo; cited from earlier work
Excerpt: However, increasing daptomycin doses raises concerns about safety. It was shown that daptomycin muscular toxicity, as measured by elevation in serum creatinine phosphokinase (CPK), correlated with plasma trough concentration (Cmin).

[3] = Daptomycin TDM in patients with bone and joint infection, Bayesian estimation with nonparametric model in BestDose (validation dataset)
Excerpt: as §1, §2, §3
(§4) We used an external dataset from 94 patients who received daptomycin for BJI and had TDM to validate the predictive performance of our nonparametric model in BestDose and that of the parametric model in Tucuxi. In this evaluation, we only used the daptomycin concentrations collected during the first TDM occasion in each patient.
(§5) The dosage history, covariate values, times and values of measured concentrations in each patient were entered into each program. The population model was fit to individual data by using Bayesian regression in both tools. After estimation of Bayesian posterior individual PK parameters, the estimated PK profile of each patient was obtained, including predictions of measured daptomycin concentrations.
(§6) Because daptomycin AUC is an important predictor of its antibacterial effect, we also compared the estimations of individual daily AUC (AUC24h) in the 94 patients provided by BestDose and Tucuxi.

[4] = Daptomycin TDM in patients with bone and joint infection, Bayesian estimation with parametric model (Dvorchik et al.) in Tucuxi (validation dataset)
Excerpt: as §1, §2
As we aimed at comparing our nonparametric model to a reference model for TDM and dose adjustment, we implemented the seminal daptomycin parametric model developed by daptomycin’s manufacturer into the Tucuxi software. Tucuxi is a new software dedicated to the analysis of TDM results and individual dose adjustment (http://www.tucuxi.ch/, accessed 27 December 2021).
The two-compartment reference model from Dvorchik et al. was imported into Tucuxi, including its error model and all its covariates except body temperature, which influenced daptomycin clearance in the original model. This covariate was discarded because it is not measured consistently in all patients in routine, especially in outpatients, and its value may be altered by co-treatment such as acetaminophen. The other covariates were retained, with creatinine clearance and sex influencing daptomycin clearance and body weight influencing both intercompartment clearance and peripheral volume of distribution.
as §4, §5, §6

[5] = patients who received 6 mg/kg; cited from earlier work
[6] = cited from earlier work
Experimental: Daptomycin is a cyclic lipopeptide antibiotic with bactericidal activity on Gram-positive bacteria discovered in 1980 [1, 2]. The Food and Drug Administration (FDA) approved its use in 2003 for treating complicated skin and skin structure infections and Staphylococcus aureus bloodstream infections, including those with right-sided infective endocarditis. In those indications, the recommended dosing regimen ranges from 4 to 6 mg/kg. Daptomycin is also used off-label in various indications, including bloodstream infections caused by Gram-positive agents others than S. aureus and bone an ...

[7] = learning dataset n = 81, Pmetrics estimation, mean
[8] = learning dataset n = 81, Pmetrics estimation, median

Structure (SMILES): CCCCCCCCCC(=O)N[C@@H](Cc1c[nH]c2ccccc12)C(=O)N[C@H](CC(N)=O)C(=O)N[C@@H](CC(=O)O)C(=O)N[C@@H]1C(=O)NCC(=O)N[C@@H](CCCN)C(=O)N[C@@H](CC(=O)O)C(=O)N[C@H](C)C(=O)N[C@@H](CC(=O)O)C(=O)NCC(=O)N[C@H](CO)C(=O)N[C@@H]([C@H](C)CC(=O)O)C(=O)N[C@@H](CC(=O)c2ccccc2N)C(=O)O[C@@H]1C [daptomycin, Daptomycin]
- Kpc (transfer rate constant peripheral to central), mean ([1]; in vivo): 0.667 h⁻¹
- Kpc (transfer rate constant peripheral to central), median ([1]; in vivo): 0.449 h⁻¹
- Kcp (transfer rate constant central to peripheral), mean [1, 7]: 0.693 h⁻¹
- Ki (non-renal component of elimination rate constant), mean [1, 7]: 0.060 h⁻¹
- Ks (renal component of elimination rate constant), mean [1, 7]: 0.050 h^−1 per 100 mL/min of CLCR
- Kcp (transfer rate constant central to peripheral), median [1, 8]: 0.287 h⁻¹
- Ki (non-renal component of elimination rate constant), median [1, 8]: 0.052 h⁻¹
- Ks (renal component of elimination rate constant), median [1, 8]: 0.045 h^−1 per 100 mL/min of CLCR
- V1 (central volume of distribution), mean ([1]; population parameter, learning dataset n = 81, Pmetrics estimation, mean): 6.90 L per 70 kg
- V1 (central volume of distribution), median ([1]; population parameter, learning dataset n = 81, Pmetrics estimation, median): 7.18 L per 70 kg
- Upper bound for Cmin target (CPK elevation) [2]: 24300 ng/mL
- T1/2 (terminal half-life) ([3]; BestDose individual estimate, validation dataset n = 94, mean ± SD, SD): 16.8 ± 10.6 h
- Proportion of patients with AUC24h < 666 mg.h/L (underexposed) ([3]; human, in vivo): 21.3%
- AUC24h ([3]; human, in vivo, 1.3 mg/kg, SD): 975 ± 395 µg·h/mL
- CLdap (daptomycin total body clearance) ([3]; human, in vivo, SD): 0.74 ± 0.42 L/h
- Cmin ([3]; human, in vivo, SD): 21300 ± 12900 ng/mL
- Dmin (minimum effective dose to attain AUC24h = 666 mg.h/L at steady-state) ([3]; human, in vivo, SD): 6.4 ± 2.7 mg/kg
- Predicted concentrations ([3]; human, in vivo, SD): 46.6 ± 46.7 mg/L
- V1 ([3]; human, in vivo, SD): 7.9 ± 3.5 L
- T1/2 (terminal half-life) ([4]; Tucuxi individual estimate, validation dataset n = 94, mean ± SD): 13.1 ± 4.7 h
- AUC24h ([4]; human, in vivo, SD): 893 ± 345 µg·h/mL
- CLdap (daptomycin total body clearance) ([4]; human, in vivo, SD): 0.73 ± 0.29 L/h
- Dmin (minimum effective dose to attain AUC24h = 666 mg.h/L at steady-state) ([4]; human, in vivo, SD): 6.9 ± 2.8 mg/kg
- Predicted concentrations ([4]; human, in vivo, SD): 44.3 ± 44.5 mg/L
- V1 ([4]; human, in vivo, SD): 5.9 ± 2.4 L
- Rate of efficacy target attainment [5]: 40%
- Average ratio of area under the unbound concentration time-curve in bone over plasma ([6]; 10 patients): 1.08
- Average tissue to plasma concentration ratio, bone ([6]; bone): 14.1%
- Average tissue to plasma concentration ratio, synovial fluid ([6]; synovial fluid): 54%

From paper PMC8779485, “Implementation and Comparison of Two Pharmacometric Tools for Model-Based Therapeutic Drug Monitoring and Precision Dosing of Daptomycin” (Pharmaceutics, 2022)
